≈ marks a conversion by molar mass, not a printed value. Like-named read-outs stand apart in the source and are kept apart here.
Experiments:
[1] = DPPH radical scavenging assay; format: biochemical; details: for inhibition of free radical (DPPH): 100 µg/mL; for IC50 DPPH Scavenging: mean ± SD, triplicate
Procedure: (§1) To evaluate the antioxidant potential of the stress compound, a multifaceted antioxidant evaluation of a stress compound was performed via DPPH scavenging assay, OH● radical scavenging assay, NO scavenging assay, and Iron chelating assay by following pre-described protocols.

NO scavenging assay = format: biochemical; details: for IC50 NO Inhibition: mean ± SD, triplicate
Procedure: as §1

[2] = tested on: prostate cancer cells (PC3); assay: MTT cytotoxicity assay; format: cell-based; details: Homo sapiens
Procedure: MTT assay was used to assess cytotoxicity against the human prostate PC3 cell line. […] PC3 cells were cultured in a humidified CO2 incubator at 37 °C in complete growth medium RPMI 1640 enriched with 2.2 g/L NaHCO3, 100 µg/mL streptomycin sulfate, 10% v/v heat-inactivated fetal bovine serum (HIFBS), […] amphotericin B, and 100 IU/mL penicillin G sodium. 20 µL of a compound in 1% DMSO in PBS and 180 µL of PC3 cancer cells were combined in a 96-well plate to reach a final concentration of 20 µg/mL for evaluating the cytotoxicity on PC3 cancer cells. The cells were loaded at an assay density of 1 × 10^4 cells/mL. The plate was incubated in humidified 5% CO2 at 37 °C for 24 h, 48 h, and 72 h. Cabazitaxel was utilized as a positive control, and 1 percent DMSO in PBS was employed as a negative control. Cabazitaxel was procured from Enzo life sciences, Fisher Scientific (Thermo Fisher Scientific, California, USA) CAS-183133-96-2 (ENZCHM2170010). A stock solution (4 mg/mL) of Cabazitaxel was prepared in DMSO and diluted in 1× PBS to make it 1% DMSO. Then serial dilutions of the standard compound were prepared in such a way that wells received 50, 25, 12.5, 6.25, and 3.12 µg/mL of Cabazitaxel with ≤1% DMSO. After that, 20 µL of pre-filter sterilized MTT solution was added to plates and incubated at 37 °C for 4 h in a CO2 incubator. Colored formazan crystals were detached by deliberately removing the supernatant and dissolved in 100 µL of DMSO with absorbance measured at 540 nm using Elx 800 microplate reader. Cytotoxicity was calculated using the following formula:% cytotoxicity = [100−(As/Ac × 100)] (1) where As and Ac show the absorbance of sample and negative control, respectively. Cytotoxicity was calculated with GraphPad Prism 5 software.

Iron chelating assay = format: biochemical; details: for IC50 Iron Chelation: mean ± SD, triplicate
Procedure: as §1

blood lymphocytes = assay: Comet assay (genotoxicity); format: cell-based
Procedure: To evaluate toxicity, blood lymphocytes were treated with 10 and 20 µg/mL MVL samples, 20 µg/mL EMS (positive), 1% DMSO in PBS (negative control), and comet assay was performed. The slides were envisioned under a fluorescent microscope, and the extent of DNA damage was evaluated by analyzing the photomicrographs via CASP 1.2.3.b image analysis. Analysis of 50–100 cells from each sample was performed to assess comet length, head length, tail length, tail moment, DNA content in the head, and tail of lymphocytes. […] The tail length (18.5 ± 1.4 µm) of EMS-treated DNA clearly indicates the production of nicks in nuclear content, representing a greater extent of genotoxicity. […]

[3] = OH● radical scavenging assay; format: biochemical; details: for inhibition of OH● radicals: 100 µg/mL; for IC50 OH● Inhibition: mean ± SD, triplicate
Procedure: as §1

P53 = assay: Western blot expression analysis in PC3 cells; format: cell-based, human; details: PC3, 0, 5 and 10 µg/mL, 48 h
Procedure: (§2) To unveil the possible mechanistic reason behind the anti-proliferation of cancer cell colonies in MTT assays, expression analysis of apoptotic proteins P53, BCL-2 and BAX were assessed via western blot technique (Figure 6). GAPDH served as a loading control. Prostate cancer cells (PC3) were treated with compound MVL at three concentrations (0, 5, and 10 µg/mL) for 48 h. Protein (40–60 µg) from protein lysate was segregated and probed with specified monoclonal antibodies.
(§3) Figure 6 Western blot analysis of proteins associated with MVL induced apoptosis. Prostate cancer cells, PC3 were treated with MVL at a concentration of 0, 5, and 10 µg/mL for 48 h. […] GAPDH was used as a loading control. Fold change in P-53, BAX, and BCL-2 expression after treating for 48 h with different concentrations of MVL. Means with different superscripts (^a–c) indicate significant (p < 0.001) difference in fold change between groups.
(§4) PC3 cells were cultured in a T75 flask (1 × 10^6/flask). After 48 h, cells were treated with […]. Following treatment, media was aspirated and cells were washed with cold PBS whose pH was maintained at 7.4 trypsinized and pelleted in 15 mL falcon tubes, and cold lysis buffer was added to the pellet. Protein extraction and western blot analysis were done by following the protocol described previously.

BAX = assay: Western blot expression analysis in PC3 cells; format: cell-based, human; details: PC3, 0, 5 and 10 µg/mL, 48 h
Procedure: as §2, §3, §4

BCL-2 = assay: Western blot expression analysis in PC3 cells; format: cell-based, human; details: PC3, 0, 5 and 10 µg/mL, 48 h
Procedure: as §2, §3, §4

PC3 cells = assay: In vitro scratch (cell migration) assay; format: cell-based, human; details: PC3, 10 µg/mL, 24 h treatment; control 16.62 ± 4.4%
Procedure: Stress compound MVL was tested for cell migration of PC3 using an established in vitro scratch test for 24 h. MVL (10 µg/mL) appeared to induce a significant reduction in cell migration at 12 and 24 h treatment of PC3. This was estimated by comparing the scratch area at every observation time as a percentage of control at 0 h. The area of scratch at 24 h treatment with MVL was recorded as 61.10 ± 5.2% compared to control (16.62 ± 4.4%) (Figure 5).
Figure 5 In vitro scratch assay on MVL treated prostate cancer cells. PC3 cells were plated in 6-well plates and scratched at the full confluence. […] Reduction in the area of the scratch was Photographed using Olympus CKX41 microscope and measured using ImageJ software. Data is mean ± SEM percent area of scratch in triplicate at ***: p < 0.001 and ****: p < 0.0001.
In vitro wounds were induced by a modified protocol described, and the scratch assay was performed on cells to study the effect of stress compound on cell migration. In the growth medium of 24-well plates, […] were injected at a density of 5 × 10^4 cells/well. After achieving about 100% proliferation, the cells were shifted to the basal media for 24 h. […] Images were recorded instantly after being wounded and then again portrayed at 0, 12, and 24 h time points. Using Image J software, cell migration rates were quantified by measuring the wound area change (pixels).

| Compound | inhibition of free radical (DPPH) [1] | IC50 DPPH Scavenging [1] | inhibition of NO free radicals (NO scavenging assay) | IC50 NO Inhibition (NO scavenging assay) | IC50 ([2]; 24 h, read-out: IC50 24 h) | IC50 ([2]; 48 h, read-out: IC50 48 h) | IC50 ([2]; 72 h, read-out: IC50 72 h) | iron chelation capacity (Iron chelating assay) | IC50 Iron Chelation (Iron chelating assay) | % DNA in Head (blood lymphocytes; 20 µg/mL) | % DNA in Tail (blood lymphocytes; 20 µg/mL) | Comet Length (blood lymphocytes; 20 µg/mL) | Head Length (blood lymphocytes; 20 µg/mL) | Tail Length (blood lymphocytes; 20 µg/mL) | Tail Moment (blood lymphocytes; 20 µg/mL) | inhibition of OH● radicals [3] | IC50 OH● Inhibition [3] | further results |
| --- | --- | --- | --- | --- | --- | --- | --- | --- | --- | --- | --- | --- | --- | --- | --- | --- | --- | --- |
| O=C1O[C@H]([C@@H](O)CO)C(O)=C1O [Ascorbic acid, reference compound] | 84.23 ± 2.9% | 6.52 ± 4.92 µg/mL (≈ 37 µM) | 81.69 ± 2.69% | 8.44 ± 4.17 µg/mL (≈ 47.9 µM) | – | – | – | – | – | – | – | – | – | – | – | – | – | – |
| CO[C@H]1C(=O)[C@]2(C)[C@@H](OC)C[C@H]3OC[C@@]3(OC(C)=O)[C@H]2[C@H](OC(=O)c2ccccc2)[C@]2(O)C[C@H](OC(=O)[C@H](O)[C@@H](NC(=O)OC(C)(C)C)c3ccccc3)C(C)=C1C2(C)C [Cabazitaxel, reference compound] | – | – | – | – | 21.2 ± 5.1 µg/mL (≈ 25.3 µM) | 15.1 ± 5.7 µg/mL (≈ 18.1 µM) | 9.25 ± 3.4 µg/mL (≈ 11.1 µM) | – | – | – | – | – | – | – | – | – | – | – |
| O=C(O)CN(CCN(CC(=O)O)CC(=O)O)CC(=O)O [EDTA, reference compound] | – | – | – | – | – | – | – | 81.52 ± 4.67% | 10.20 ± 6.54 µg/mL (≈ 34.9 µM) | – | – | – | – | – | – | – | – | – |
| CCOS(C)(=O)=O [EMS, Ethyl methane sulfonate, reference compound] | – | – | – | – | – | – | – | – | – | 56.6 ± 3.5% | 43.4 ± 1.8 ^¥ % | 42.6 ± 3.6 µm | 24.1 ± 2.7 µm | 18.5 ± 1.4 µm | 1.37 ± 0.11 ^¥ µm | – | – | – |
| O=C(O)c1cc(O)c(O)c(O)c1 [Gallic acid, reference compound] | – | – | – | – | – | – | – | – | – | – | – | – | – | – | – | 83.15 ± 3.67% | 6.26 ± 6.39 µg/mL (≈ 36.8 µM) | – |
| CC1=CC(=O)OCC1 [MVL, anhydromevalonolactone] | 78.18 ± 4.2% | 19.65 ± 5.7 µg/mL (≈ 175 µM) | 80.05 ± 3.88% | 15.49 ± 4.8 µg/mL (≈ 138 µM) | 35.8 ± 4.2 µg/mL (≈ 319 µM) | 23.3 ± 3.8 µg/mL (≈ 208 µM) | 16.2 ± 6.5 µg/mL (≈ 145 µM) | 70.96 ± 5.79% | 19.38 ± 7.11 µg/mL (≈ 173 µM) | 80.6 ± 1.8% | 19.4 ± 2.6 ^β, ¥ % | 41.4 ± 2.4 µm | 31.7 ± 1.8 µm | 8.5 ± 1.3 µm | 0.24 ± 0.03 ^β, ¥ µm | 72.69 ± 4.93% | 19.65 ± 5.22 µg/mL (≈ 175 µM) | % DNA in Head (blood lymphocytes; 10 µg/mL): 86.1 ± 2.8%; % DNA in Tail (blood lymphocytes; 10 µg/mL): 13.9 ± 1.8 ^β %; Comet Length (blood lymphocytes; 10 µg/mL): 42.6 ± 3.1 µm; Head Length (blood lymphocytes; 10 µg/mL): 36.7 ± 2.5 µm; Tail Length (blood lymphocytes; 10 µg/mL): 5.9 ± 0.3 µm; Tail Moment (blood lymphocytes; 10 µg/mL): 0.11 ± 0.03 ^β µm; P53 protein expression (P53): upregulation; BAX protein expression (BAX): upregulation; BCL-2 protein expression (BCL-2): downregulation; area of scratch as percentage of control at 0 h (PC3 cells): 61.10 ± 5.2% |
